Results on five compounds are retold here after patent US20040248913A1, “(Pyridinyl and pyrimidyl) trienoic acid derivatives as retinoid x receptor modulators” (priority 2001, published 2004).

Experiment [1] has as its target T1, RXRα:RAR heterodimer (Homo sapiens, UniProt P19793).
T1 construct: expressed in transfected cells; host or cells: CV-1 cells
T1 sequence (P19793 1-462): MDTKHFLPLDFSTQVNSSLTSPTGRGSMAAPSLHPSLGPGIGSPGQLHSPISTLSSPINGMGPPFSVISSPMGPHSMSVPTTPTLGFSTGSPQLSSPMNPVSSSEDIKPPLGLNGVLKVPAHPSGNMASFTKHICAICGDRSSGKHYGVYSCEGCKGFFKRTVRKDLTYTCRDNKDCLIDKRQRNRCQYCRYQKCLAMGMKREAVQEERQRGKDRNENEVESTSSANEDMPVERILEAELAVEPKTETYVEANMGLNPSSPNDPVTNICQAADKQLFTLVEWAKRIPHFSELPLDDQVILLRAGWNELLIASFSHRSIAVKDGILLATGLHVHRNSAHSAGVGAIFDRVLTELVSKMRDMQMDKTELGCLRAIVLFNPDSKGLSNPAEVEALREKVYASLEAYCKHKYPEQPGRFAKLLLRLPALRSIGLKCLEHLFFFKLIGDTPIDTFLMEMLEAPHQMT
Put plainly: RXR:RAR heterodimer cotransfection assay in CV-1 cells. Format: cell-based. The conditions noted are these: for RXR:RAR antagonist activity (in words): antagonist assay; for Antagonist Efficacy (%): relative to maximal repression (100%) in presence of 10 nM TTNPB. From the text: (§1) In the co-transfection assay, cloned cDNA for one or more IRs (e.g., human RARα, RXRα, or PPARγ), alone or in combination (i.e. for heterodimer assays) under the control of a constitutive promoter (e.g., the SV 40, RSV or CMV promoter) is introduced by transfection (a procedure to introduce exogenous genes into cells) into a background cell substantially devoid of endogenous IRs. These introduced gene(s) direct the recipient cells to make the IR protein(s) of interest. A further gene is also introduced (co-transfected) into the same cells in conjunction with the IR gene(s). This further gene, comprising the cDNA for a reporter protein, such as firefly luciferase (LUC), controlled by an appropriate hormone responsive promoter containing a hormone response element (HRE). This reporter plasmid functions as a reporter for the transcriptional-modulating activity of the target IR(s). Thus, the reporter acts as a surrogate for the products (mRNA then protein) normally expressed by a gene under control of the target receptor(s) and their native hormone(s).
(§2) Compounds of the present invention were also tested for the ability to synergize with an RAR or PPARγ agonist in the context of an RXR heterodimer. […] Efficacy of the compounds of the present invention in the agonist and synergy assays was calculated as the maximum response obtained over the range of the dose response curve relative to the maximum response obtained by the reference agonist. Antagonist efficacy was determined as a function (%) of maximal inhibition.
(§3) RAR suppresses RXR ligand binding and transactivation of typical RXR agonists via allosteric interactions. […] However, when RAR is occupied, typical RXR agonists activate the heterodimer. […] To examine the effects of the compounds of the present invention on the transcriptional properties of the RXR:RAR heterodimer, a heterodimer cotransfection assay as described above was employed.

The test system of experiment [2] is RXRα:RAR heterodimer. The description is as above. Format: cell-based, human. The conditions noted are these: for Synergy Efficacy (%): maximal response in presence of 3 nM TTNPB relative to response to TTNPB alone; for Agonist Efficacy (%): maximal response relative to response of ATRA.
From the text: as §1, §2, §3

Another experiment deals with T2, RXRα:PPARγ heterodimer (Homo sapiens, UniProt P19793).
T2 construct: expressed in transfected cells; host or cells: CV-1 cells
T2 sequence (P19793 1-462): T1 sequence (P19793 1-462)
T2 sequence (P37231 1-505 partner): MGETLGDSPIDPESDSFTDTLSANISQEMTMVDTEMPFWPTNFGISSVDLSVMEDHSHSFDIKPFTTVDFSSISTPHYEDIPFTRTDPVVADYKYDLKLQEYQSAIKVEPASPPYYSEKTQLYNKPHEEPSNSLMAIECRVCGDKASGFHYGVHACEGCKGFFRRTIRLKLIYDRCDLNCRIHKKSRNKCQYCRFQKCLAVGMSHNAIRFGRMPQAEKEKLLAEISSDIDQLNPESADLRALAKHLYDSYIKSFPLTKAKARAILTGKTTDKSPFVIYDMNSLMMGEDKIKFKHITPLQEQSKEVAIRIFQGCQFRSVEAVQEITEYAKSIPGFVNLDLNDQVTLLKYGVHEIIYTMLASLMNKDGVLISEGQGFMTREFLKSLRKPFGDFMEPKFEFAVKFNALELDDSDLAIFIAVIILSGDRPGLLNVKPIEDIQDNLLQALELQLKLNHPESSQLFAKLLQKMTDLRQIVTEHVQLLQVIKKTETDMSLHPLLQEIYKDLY
The experiment can be described thus: RXR:PPARγ heterodimer cotransfection assay in CV-1 cells. The note with it: for Synergy Efficacy (%): maximal response in presence of 100 nM BRL49653 relative to response of BRL49653 alone; for Agonist Efficacy (%): maximal response relative to response of the thiazolidinedione BRL49653. Format: cell-based.
From the text: as §1
The compounds of the present invention were further tested for activity on RXR heterodimers with RARα, RARγ or PPARγ utilizing the cotransfection assay in CV-1 cells as described in Example 6A. The RXR:RAR heterodimer cotransfection assays utilized the following expression plasmids and reporter plasmid: pRShRARα (10 ng/well, Giguere et al., Nature, 330:624 (1987) the disclosure of which is herein incorporated by reference) or pRShRARγ (10 ng/well, Ishikawa et al., Mol. Endocrin., 4:837 (1990) the disclosure of which is herein incorporated by reference) with Δ-MTV-LUC (50 ng/well, Hollenberg and Evans, Cell, 55:899 (1988), the disclosure of which is herein incorporated by reference) containing an RARE which is referred to as two copies of the TRE-palindromic response element described in Umesono et al., Nature, 336:262 (1988), the disclosure of which is herein incorporated by reference. For the RSR:PPARγ heterodimer cotransfection assay, the RXRα receptor expression plasmid, pRShRXRα (10 ng/well), was cotrasfected with the PPARγ expression plasmid, pCMVhPPARγ (10 ng/well), and a reporter plasmid containing three copies of a PPARγ response element (pPREA3-tk-LUC, 50 ng/well; Mukherjee et al., Journ. Biol. Chem., 272:8071-8076 (1997) and references cited therein, the disclosures of which are herein incorporated by reference).
Cotransfections were performed as described in Example 6A. […] Antagonist efficacy and IC50 values were determined as in Example 6A.
Compounds of the present invention were also tested for the ability to synergize with an RAR or PPARγ agonist in the context of an RXR heterodimer. For these assays the compounds were added to the cells with a fixed concentration of TTNPB (1×10^−9 M) for RXR:RAR heterodimer assay or BRL 49633 (1×10^−7 M) for the RXR:PPARγ heterodimer assay. Efficacy of the compounds of the present invention in the agonist and synergy assays was calculated as the maximum response obtained over the range of the dose response curve relative to the maximum response obtained by the reference agonist. Antagonist efficacy was determined as a function (%) of maximal inhibition.
Kliewer et al., Nature 358:771-774 (1992). To examine the effects of the compounds of the present invention on the transcriptional properties of the RXR:PPARγ, a heterodimer cotransfection assay as described above was employed.

As to `CCCCOc1c(\C(C)=C/C=C/C(C)=C/C(=O)O)cc(C(C)C)nc1C(C)C` [Example 1, 7-(3-Butoxy-2,6-diisopropyl-pyridin-4-yl)-3-methyl-octa-2(E),4(E),6(Z)-trienoic Acid], on RXRα:RAR heterodimer [1], the “RXR:RAR antagonist activity (in words)” value is reported as “significant RXR:RAR antagonist activity” and the “Antagonist Efficacy (%)” value came to 93%. In the experiment with RXRα:RAR heterodimer [2], the “RXR:RAR agonist activity / transactivation alone (in words)” value is “not active”, the “RXR:RAR agonist activity in combination with TTNPB (in words)” value (“RXR:RAR agonist activity in combination” for short) is listed as “not active”, the “Synergy Efficacy (%)” value amounted to 7% and the “Agonist Efficacy (%)” value was determined as 1%. Further, the “RXR:PPARγ agonist activity alone (in words)” value on RXRα:PPARγ heterodimer (alone) was “partial agonists”. In addition, on RXRα:PPARγ heterodimer (in combination with the PPARγ ligand), the “RXR:PPARγ activity in combination with the PPARγ ligand (in words)” value is “stronger activity”. On RXRα:PPARγ heterodimer, the “Synergy Efficacy (%)” value was found to be 25% and the “Agonist Efficacy (%)” value came out at 11%.

As for `CCCOc1c(\C(C)=C/C=C/C(C)=C/C(=O)O)cc(C(C)C)nc1C(C)C` [Example 2, 7-(2,6-Diisopropyl-3-propoxy-pyridin-4-yl)-3-methyl-octa-2(E),4(E),6(Z)-trienoic Acid], on RXRα:RAR heterodimer [1], the “RXR:RAR antagonist activity (in words)” value is reported as “significant RXR:RAR antagonist activity” and the “Antagonist Efficacy (%)” value amounted to 88%. Also, in the experiment on RXRα:RAR heterodimer [2], the “RXR:RAR agonist activity / transactivation alone (in words)” value is recorded as “not active”, the “RXR:RAR agonist activity in combination” value was “not active”, the “Synergy Efficacy (%)” value is on record as 6% and the “Agonist Efficacy (%)” value was found to be 2%. For the same compound, at RXRα:PPARγ heterodimer, the “Synergy Efficacy (%)” value is 150% and the “Agonist Efficacy (%)” value worked out at 32%.

On to `CCOc1c(\C(C)=C/C=C/C(C)=C/C(=O)O)cc(C(C)C)nc1C(C)C` [Example 3, 7-(2,6-Diisopropyl-3-ethoxy-pyridin-4-yl)-3-methyl-octa-2(E),4(E),6(Z)-trienoic acid], for which, in the experiment with RXRα:RAR heterodimer [2], the “RXR:RAR agonist activity in combination” value was “strong agonist activity”, the “Synergy Efficacy (%)” value was determined as 73% and the “Agonist Efficacy (%)” value was found to be 6%. At RXRα:PPARγ heterodimer, the “Synergy Efficacy (%)” value is on record as 182% and the “Agonist Efficacy (%)” value came out at 42%.

On to `C/C(=C/C=C/C(C)=C/C(=O)O)c1cc(C(C)C)nc(C(C)C)c1OCC(F)F` [Example 4, 7-[3-(2,2-Difluoro-ethoxy)-2,6-diisopropyl-pyridin-4-yl]-3-methyl-octa-2(E),4(E),6(Z)-trienoic acid], for which, at RXRα:RAR heterodimer [1], the “Antagonist Efficacy (%)” value was found to be 76%. Also, in the experiment on RXRα:RAR heterodimer [2], the “RXR:RAR agonist activity in combination” value is on record as “weak to moderate agonist activity”, the “Synergy Efficacy (%)” value stood at 37% and the “Agonist Efficacy (%)” value amounted to 9%. Also, at RXRα:PPARγ heterodimer, the “Synergy Efficacy (%)” value was determined as 233% and the “Agonist Efficacy (%)” value was 53%.

On to `C/C(=C/C=C/C(C)=C/C(=O)O)c1cc(C(C)C)nc(C(C)C)c1OCC(F)(F)F` [Example 5, 7-[2,6-Diisopropyl-3-(2,2,2-trifluoro-ethoxy)-pyridin-4-yl]-3-methyl-octa-2(E),4(E),6(Z)-trienoic acid], for which the “Antagonist Efficacy (%)” value at RXRα:RAR heterodimer [1] stood at 85%. Besides, in the experiment with RXRα:RAR heterodimer [2], the “RXR:RAR agonist activity in combination” value was “weak to moderate agonist activity”, the “Synergy Efficacy (%)” value turned out to be 18% and the “Agonist Efficacy (%)” value amounted to 3%. Further, on RXRα:PPARγ heterodimer, the “Synergy Efficacy (%)” value is on record as 107% and the “Agonist Efficacy (%)” value was determined as 55%.
